Values quoted from earlier work, collected in patent EP3964225A1 (priority 2020, dated 2022).

System: B cell growth
Settings: eight p17 peptides tested

GARASVLSGGELDRWEKIRL [peptide F1, p17-derived peptide, aminoacids 2 to 21 of p17]
cell growth promoting activity: the only one endowed with cell growth promoting activity
